Test results taken from patent US11142526B2, “Spirocycle compounds and methods of making and using same” (H. Lundbeck A/S, priority 2017, dated 2021).
Where two headings read alike, the source gives them in different places.

Experiments:
[1] = target: MAGL (Homo sapiens (Human), UniProt Q99685); assay: In vitro competitive activity-based protein profiling (gel-based, FP-Rh or HT-01 probe); format: biochemical
Procedure: In Vitro Competitive Activity-Based Protein Profiling.
Proteomes (human prefrontal cortex or cell membrane fractions) (50 μL, 1.0 mg/mL total protein concentration) were preincubated with varying concentrations of inhibitors at 37° C. After 30 min, FP-Rh or HT-01 (1.0 μL, 50 μM in DMSO) was added and the mixture was incubated for another 30 min at room temperature. Reactions were quenched with SDS loading buffer (15 μL—4×) and run on SDS-PAGE.

[2] = target: T1, MAGL (Mus musculus (Mouse), UniProt O35678); assay: Mouse brain proteomes from inhibitor treated mice (oral gavage, brain MAGL activity 4 h after administration); format: in vivo; conditions: 5 mg/kg oral gavage
Procedure: Preparation of Mouse Brain Proteomes from Inhibitor Treated Mice.
Inhibitors were administered to wild-type C57B1/6J by oral gavage in a vehicle of polyethylene glycol.

[3] = target: T1, MAGL; assay: In vitro competitive activity-based protein profiling, mouse brain proteome; format: biochemical; conditions: for inhibition at 1 µM: mouse; for IC50: mouse brain
[4] = human PC3, read-out: MAGL Human PC3 (IC50)
[5] = human PC3, read-out: MAGL % Inhibition at 1 μM (human PC3)
[6] = human PFC (prefrontal cortex), read-out: MAGL % Inhibition at 1 μM (human PFC)

MAGL (Homo sapiens (Human), UniProt Q99685), sequence (Q99685 whole entry): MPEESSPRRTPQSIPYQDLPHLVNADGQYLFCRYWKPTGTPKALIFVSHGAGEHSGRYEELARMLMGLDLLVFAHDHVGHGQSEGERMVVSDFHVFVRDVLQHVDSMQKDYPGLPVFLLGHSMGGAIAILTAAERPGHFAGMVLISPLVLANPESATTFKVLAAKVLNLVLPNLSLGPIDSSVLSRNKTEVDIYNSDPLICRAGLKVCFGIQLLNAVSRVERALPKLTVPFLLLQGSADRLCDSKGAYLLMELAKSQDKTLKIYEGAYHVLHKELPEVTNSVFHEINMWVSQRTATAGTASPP
T1 sequence (O35678 whole entry): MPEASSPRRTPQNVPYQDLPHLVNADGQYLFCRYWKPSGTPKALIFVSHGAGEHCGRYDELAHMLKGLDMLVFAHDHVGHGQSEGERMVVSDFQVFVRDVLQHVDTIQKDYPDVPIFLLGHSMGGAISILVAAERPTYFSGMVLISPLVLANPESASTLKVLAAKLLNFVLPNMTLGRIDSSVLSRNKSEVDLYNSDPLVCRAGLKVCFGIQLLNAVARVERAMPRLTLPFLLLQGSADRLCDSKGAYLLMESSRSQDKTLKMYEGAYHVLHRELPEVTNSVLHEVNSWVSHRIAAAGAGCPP

SMILES	IC50 [1, 4] [nM]	MAGL % Inhibition at 5 mg/kg (Mouse) [2]	inhibition at 1 µM [3] [%]	IC50 [3] [nM]	inhibition at 1 µM [1, 5] [%]	inhibition at 1 µM [1, 6] [%]	IC50 ([1]; human PFC (prefrontal cortex), read-out: MAGL Human PFC (IC50)) [nM]
O=C(OC(C(F)(F)F)C(F)(F)F)N1CCC2(CCCN2C(=O)c2cc3ccc(Cl)cc3s2)CC1 [Example 60, 1,1,1,3,3,3-Hexafluoropropan-2-yl 1-(6-chlorobenzo[b]thiophene-2-carbonyl)-1,8-diazaspiro[4.5] decane-8-carboxylate]	< 100	### (% inhibition is greater than or equal to 75%)	> 75	< 100			
CC(C)Oc1cnc(C2(C(=O)N3CCCC34CCN(C(=O)OC(C(F)(F)F)C(F)(F)F)CC4)CC2)nc1 [Example 194, 1,1,1,3,3,3-Hexafluoropropan-2-yl 1-(1-(5-isopropoxypyrimidin-2-yl)cyclopropane-1-carbonyl)-1,8-diazaspiro [4.5]decane-8-carboxylate]	< 100	### (% inhibition is greater than or equal to 75%)	> 75		> 75	> 75	
Cc1c(CN2CCCC23CCN(C(=O)OC(C(F)(F)F)C(F)(F)F)CC3)[nH]c2ccc(F)cc12 [Example 58, 1,1,1,3,3,3-Hexafluoropropan-2-yl 1-((5-fluoro-3-methyl-1H-indol-2-yl)methyl)-1,8-diazaspiro[4.5] decane-8-carboxylate]	< 100	### (% inhibition is greater than or equal to 75%)	> 75	< 100			
CC1(NC(=O)c2nnc3n2CCN(C2COC2)C3)CCN(C(=O)OC(C(F)(F)F)C(F)(F)F)CC1 [Example 207, 1,1,1,3,3,3-Hexafluoropropan-2-yl 4-methyl-4-(7-(oxetan-3-yl)-5,6,7,8-tetrahydro-[1,2,4]triazolo [4,3-a]pyrazine-3-carboxamido) piperidine-1-carboxylate]	< 100	### (% inhibition is greater than or equal to 75%)	> 75		> 75	> 75	
O=C(OC(C(F)(F)F)C(F)(F)F)N1CCC2(CCCN2C(=O)c2cn3c(n2)CN(C2CC2)CC3)CC1 [Example 2, 1,1,1,3,3,3-Hexafluoropropan-2-yl 1-(7-cyclopropyl-5,6,7,8-tetrahydroimidazo[1,2-a]pyrazine-2-carbonyl)-1,8-diazaspiro[4.5]decane-8-carboxylate]	< 100	### (% inhibition is greater than or equal to 75%)	> 75	< 100	> 75	> 75	< 100
CC(C)N1CCn2cc(C(=O)NC3(C)CCN(C(=O)OC(C(F)(F)F)C(F)(F)F)CC3)nc2C1 [Example 182, 1,1,1,3,3,3-Hexafluoropropan-2-yl 4-(7-isopropyl-5,6,7,8-tetrahydroimidazo[1,2-a]pyrazine-2-carboxamido)-4-methylpiperidine-1-carboxylate]	< 100	### (% inhibition is greater than or equal to 75%)			> 75	> 75	
CC1(NC(=O)c2cn3c(n2)CN(S(C)(=O)=O)CC3)CCN(C(=O)OC(C(F)(F)F)C(F)(F)F)CC1 [Example 27, 1,1,1,3,3,3-hexafluoropropan-2-yl 4-methyl-4-(7-(methylsulfonyl)-5,6,7,8-tetrahydroimidazo[1,2-a]pyrazine-2-carboxamido)piperidine-1-carboxylate]	< 100	# (% inhibition less or equal to 25%)			> 75		
O=C(OC(C(F)(F)F)C(F)(F)F)N1CCC2(CCN(Cc3cc4cc(Cl)ccc4s3)C2)CC1 [Example 51, 1,1,1,3,3,3-Hexafluoropropan-2-yl 2-((5-chlorobenzo[b]thiophen-2-yl)methyl)-2,8-diazaspiro[4.5] decane-8-carboxylate]		### (% inhibition is greater than or equal to 75%)	> 75	< 100			
O=C(OC(C(F)(F)F)C(F)(F)F)N1CCC2(CCCN2C(=O)c2cc3cc(Cl)ccc3[nH]2)CC1 [Example 93, 1,1,1,3,3.3-Hexafluoropropan-2-yl 1-(5-chloro-1H-indole-2-carbonyl)-1,8-diazaspiro[4.5] decane-8-carboxylate]		### (% inhibition is greater than or equal to 75%)	> 75	< 100			
O=C(OC(C(F)(F)F)C(F)(F)F)N1CCC2(CCCN2C(=O)c2cc3cccc(Cl)c3s2)CC1 [Example 105, 1,1,1,3,3,3-Hexafluoropropan-2-yl 1-(7-chlorobenzo[b]thiophene-2-carbonyl)-1,8-diazaspiro[4.5] decane-8-carboxylate]		### (% inhibition is greater than or equal to 75%)	> 75	< 100			
CC(C)n1cc(CN2CCCC23CCN(C(=O)OC(C(F)(F)F)C(F)(F)F)CC3)c(-c2ccccc2Cl)n1 [Example 222, 1,1,1,3,3,3-Hexafluoropropan-2-yl 1-((3-(2-chlorophenyl)-1-isopropyl-1H-pyrazol-4-yl)methyl)-1,8-diazaspiro[4.5]decane-8-carboxylate]		### (% inhibition is greater than or equal to 75%)	> 75	< 100			
CCc1cc(CN2CCC3(CCN(C(=O)OC(C(F)(F)F)C(F)(F)F)CC3)C2)n(C2CCOCC2)n1 [Example 7, 1,1,1,3,3,3-Hexafluoropropan-2-yl 2-((3-ethyl-1-(tetrahydro-2H-pyran-4-yl)-1H-pyrazol-5-yl)methyl)-2,8-diazaspiro[4.5]decane-8-carboxylate]		### (% inhibition is greater than or equal to 75%)	> 75	< 100			
O=C(OC(C(F)(F)F)C(F)(F)F)N1CCC2(CCCN2C(=O)c2ccc3occc3c2)CC1 [Example 77, 1,1,1,3,3,3-Hexafluoropropan-2-yl 1-(benzofuran-5-carbonyl)-1,8-diazaspiro[4.5] decane-8-carboxylate]		### (% inhibition is greater than or equal to 75%)	> 75	< 100			
Cc1ccc2sc(CN3CCCC34CCN(C(=O)OC(C(F)(F)F)C(F)(F)F)CC4)cc2c1 [Example 61, 1,1,1,3,3.3-Hexafluoropropan-2-yl 1-((5-methylbenzo[b]thiophen-2-yl)methyl)-1,8-diazaspiro[4.5] decane-8-carboxylate]		### (% inhibition is greater than or equal to 75%)	> 75	< 100			
CC(C)n1cc(CN2CCC3(CCN(C(=O)OC(C(F)(F)F)C(F)(F)F)CC3)C2)c(-c2cccc(Cl)c2)n1 [Example 218, 1,1,1,3,3,3-Hexafluoropropan-2-yl 2-((3-(3-chlorophenyl)-1-isopropyl-1H-pyrazol-4-yl)methyl)-2,8-diazaspiro[4.5]decane-8-carboxylate]		### (% inhibition is greater than or equal to 75%)	> 75	< 100			
CC(C)(C)c1cc(CN2CCC3(CCN(C(=O)OC(C(F)(F)F)C(F)(F)F)CC3)C2)n(C2CCOCC2)n1 [Example 213, 1,1,1,3,3,3-Hexafluoropropan-2-yl 2-((3-(t-butyl)-1-(tetrahydro-2H-pyran-4-yl)-1H-pyrazol-5-yl)methyl)-2,8-diazaspiro[4.5]decane-8-carboxylate]		### (% inhibition is greater than or equal to 75%)	> 75	< 100			
O=C(OC(C(F)(F)F)C(F)(F)F)N1CCC2(CCCN2Cc2cc3c(Cl)cc(Cl)cc3[nH]2)CC1 [Example 11, 1,1,1,3,3,3-Hexafluoropropan-2-yl 1-((4,6-dichloro-1H-indol-2-yl)methyl)-1,8-diazaspiro[4.5]decane-8-carboxylate]		### (% inhibition is greater than or equal to 75%)	> 75	< 100			
O=C(OC(C(F)(F)F)C(F)(F)F)N1CCC2(CCCN2Cc2ccc3ccccc3n2)CC1 [Example 54, 1,1,1,3,3,3-Hexafluoropropan-2-yl 1-(quinolin-2-ylmethyl)-1,8-diazaspiro [4.5]decane-8-carboxylate]		### (% inhibition is greater than or equal to 75%)	> 75	< 100			
O=C(OC(C(F)(F)F)C(F)(F)F)N1CCC2(CCCN2C(=O)c2cc3ccc(C(F)(F)F)cc3s2)CC1 [Example 101, 1,1,1,3,3,3-Hexafluoropropan-2-yl 1-(6-(trifluoromethyl)benzo[b]thiophene-2-carbonyl)-1,8-diazaspiro[4.5] decane-8-carboxylate]		### (% inhibition is greater than or equal to 75%)	> 75	< 100			
CC(C)n1cc(CN2CCCC23CCN(C(=O)OC(C(F)(F)F)C(F)(F)F)CC3)c(-c2cccc(Cl)c2)n1 [Example 219, 1,1,1,3,3,3-Hexafluoropropan-2-yl 1-((3-(3-chlorophenyl)-1-isopropyl-1H-pyrazol-4-yl)methyl)-1,8-diazaspiro[4.5]decane-8-carboxylate]		### (% inhibition is greater than or equal to 75%)	> 75	< 100			
